Assay [1] addresses T1, mutEGFR (D770_N771insSVD) (Homo sapiens, UniProt P00533, DUP768-770).
T1 construct: GST-EGFR #3 (SVD between D770 and N771); made in house; host or cells: Sf9 insect cells (baculovirus)
In words: Exon20-Mutant-EGFR (D770_N771insSVD) kinase assay (TR-FRET). Format: biochemical. For orientation: Time-resolved FRET reads energy transfer from a long-lived donor to a nearby acceptor.

Assay [2] deals with T2, mutEGFR (D770_N771insNPG, T790) (Homo sapiens, UniProt P00533, INS770NPG/T790M).
T2 construct: exact insNPG construct not described; in-house EGFR proteins were N-terminal GST fusions from baculovirus/insect cells (borders R669-A1210 given only for WT, insSVD, insASV)
T2 sequence (P00533 with tags, fused parts or gaps INS770NPG/T790M limits assumed): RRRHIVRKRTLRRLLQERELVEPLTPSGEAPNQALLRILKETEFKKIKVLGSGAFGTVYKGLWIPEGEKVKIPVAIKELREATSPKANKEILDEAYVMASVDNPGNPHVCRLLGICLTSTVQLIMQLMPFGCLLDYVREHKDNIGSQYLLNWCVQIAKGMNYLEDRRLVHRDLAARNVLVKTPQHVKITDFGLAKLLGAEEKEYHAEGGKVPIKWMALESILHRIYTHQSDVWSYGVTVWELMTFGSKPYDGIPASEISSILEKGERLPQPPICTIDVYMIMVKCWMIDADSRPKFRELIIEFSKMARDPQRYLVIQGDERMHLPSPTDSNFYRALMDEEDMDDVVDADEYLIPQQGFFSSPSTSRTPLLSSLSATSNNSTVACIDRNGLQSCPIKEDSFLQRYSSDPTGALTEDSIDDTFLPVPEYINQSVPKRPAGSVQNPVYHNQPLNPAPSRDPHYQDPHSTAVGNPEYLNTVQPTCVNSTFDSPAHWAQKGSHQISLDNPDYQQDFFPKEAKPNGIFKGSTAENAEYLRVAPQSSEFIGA
In words: mutEGFR (D770_N771insNPG, T790) kinase assay. Format: biochemical. Particulars: Table 2a, D770_N771insNPG. From the text: The different EGFR proteins used in the biochemical kinase activity inhibition assays were generated inhouse by expression in insect cells using Baculo Virus system and subsequent purification as described in the following paragraphs.
The cDNAs encoding the various protein sequences from human EGFR human (P00533) were optimized for expression in eukaryotic cells and synthesized by the GeneArt Technology at Life Technologies.

The test system of assay [3] is BA/F3 (insSVD) cells. Description: Ba/F3-EGFR-insSVD cell survival assay (Cell Titer-Glo). Conditions: Mus musculus, BaF3, 48 h. Format: cell-based. The procedure, abridged: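 CellTiter-Glo luminescence read after 48 h compound exposure at 37° C. Cells: IL-3-independent Ba/F3 lines transduced with EGFR-insSVD or EGFR-insSVD T790M, maintained on 10 ng/ml EGF and seeded at 4000 per well.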

The mark [4] stands for this setting: mutEGFR (D770_N771insSVD) kinase assay IC50, Table 2a, D770_N771insSVD, 2 mM ATP.
Where [5] appears, read: Table 3a, cell survival, Cell Titer-Glo, with 10 ng/ml EGF, without IL-3.
Setting [6] is: mutEGFR (D770_N771insSVD) kinase assay IC50, Table 2b (from US Priority Patent Application), mutEGFR D770_N771insSVD.

The structures appear in SMILES notation.

T1 sequence (P00533 with tags, fused parts or gaps DUP768-770): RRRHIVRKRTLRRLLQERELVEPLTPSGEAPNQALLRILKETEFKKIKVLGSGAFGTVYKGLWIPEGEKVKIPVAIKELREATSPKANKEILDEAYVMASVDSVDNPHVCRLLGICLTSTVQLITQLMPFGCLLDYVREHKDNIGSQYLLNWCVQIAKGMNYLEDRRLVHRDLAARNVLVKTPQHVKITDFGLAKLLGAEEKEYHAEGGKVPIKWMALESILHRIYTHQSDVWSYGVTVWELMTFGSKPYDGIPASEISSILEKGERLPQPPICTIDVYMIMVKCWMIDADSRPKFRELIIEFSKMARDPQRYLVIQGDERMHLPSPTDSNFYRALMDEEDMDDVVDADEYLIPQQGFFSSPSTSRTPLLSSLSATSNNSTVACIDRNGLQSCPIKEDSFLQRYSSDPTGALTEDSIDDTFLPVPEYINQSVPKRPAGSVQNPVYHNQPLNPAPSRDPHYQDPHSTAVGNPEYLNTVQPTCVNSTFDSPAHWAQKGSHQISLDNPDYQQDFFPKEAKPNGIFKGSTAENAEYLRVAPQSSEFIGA

As to `C=CC(=O)N1CCn2nc(Nc3ccc(C(F)(F)F)cc3)c(-c3ccnc4[nH]cc(C)c34)c2C1` [Example 94, 1-[3-(3-methyl-1H-pyrrolo[2,3-b]pyridin-4-yl)-2-[4-(trifluoromethyl)anilino]-6,7-dihydropyrazolo[1,5-a]pyrazin-5(4H)-yl]prop-2-en-1-one], the IC50 in assay [1] (setting [4]) is 213 nM; in assay [2], 403 nM; in assay [3] (setting [5]), 2760 nM.

In the case of `C=CC(=O)N1CCn2nc(-c3ccc(C(F)(F)F)cc3)c(-c3ccnc4[nH]ccc34)c2C1C` (single isomer, unassigned; isomer 2) [Example 247, 1-(4-methyl-3-(1H-pyrrolo[2,3-b]pyridin-4-yl)-2-(4-(trifluoromethyl)phenyl)-6,7-dihydropyrazolo[1,5-a]pyrazin-5(4H)-yl) prop-2-en-1-one (isomer 2)], the IC50 in assay [1] (setting [4]) worked out at 6.99 nM; in assay [2], 933 nM; in assay [3] (setting [5]), 134 nM.

In the case of `C=C(CN1CCOCC1)C(=O)N1CCn2nc(-c3ccc(F)cc3)c(-c3ccncc3)c2C1` [Example 64, 1-[2-(4-fluorophenyl)-3-(pyridin-4-yl)-6,7-dihydropyrazolo[1,5-a]pyrazin-5(4H)-yl]-2-[(morpholin-4-yl)methyl]prop-2-en-1-one], the IC50 in assay [1] (setting [4]) stood at 268 nM; in assay [2] it was 698 nM; in assay [3] (setting [5]), 5050 nM.

In the case of `CN(C)C/C=C/C(=O)N1CCn2nc(-c3ccc(C(F)(F)F)c(F)c3)c(-c3ccncc3)c2C1` [Example 151, (2E)-4-(dimethylamino)-1-{2-[3-fluoro-4-(trifluoromethyl)phenyl]-3-(pyridin-4-yl)-6,7-dihydropyrazolo[1,5-a]pyrazin-5(4H)-yl}but-2-en-1-one], the IC50 in assay [1] (setting [4]) stood at 3.2 nM; in assay [2] it was 12.1 nM; in assay [3] (setting [5]), 405 nM.

In the case of `C=CC(=O)N1CCn2nc(-c3cccc4ccoc34)c(-c3ccncc3)c2C1` [Example 107], the half-maximal inhibitory concentration (IC50) in assay [1] (setting [4]) was found to be 0.844 nM; in assay [2], 0.564 nM; in assay [3] (setting [5]) it was 41.4 nM.

On to `CN(C)C/C=C/C(=O)N1CCn2nc(-c3ccc(F)cc3)c(-c3ccnc(Nc4ccccc4)c3)c2C1` [Example 21, (2E)-1-[3-(2-anilinopyridin-4-yl)-2-(4-fluorophenyl)-6,7-dihydropyrazolo[1,5-a]pyrazin-5(4H)-yl]-4-(dimethylamino)but-2-en-1-one], for which the IC50 in assay [1] (setting [4]) stood at 1.17 nM; in assay [1] (setting [6]), 1.17 nM; in assay [2], 4.45 nM; in assay [3] (setting [5]), 101 nM; in assay [3] (Table 3b, Ba/F3 EGFR-insSVD), 101 nM.

For `COc1ccc(-c2nn3c(c2-c2ccncc2)CN(C(=O)/C=C/CN(C)C)CC3)cc1` [Example 30, (2E)-4-(dimethylamino)-1-[2-(4-methoxyphenyl)-3-(pyridin-4-yl)-6,7-dihydropyrazolo[1,5-a]pyrazin-5(4H)-yl]but-2-en-1-one], the half-inhibitory concentration (IC50) was found to be 7.25 nM in assay [1] (setting [4]), 23.7 nM in assay [2] and 1080 nM in assay [3] (setting [5]).

As for `O=C(/C=C/CN1CCCCC1)N1CCn2nc(-c3ccc(Cl)cc3)c(-c3ccncc3)c2C1` [Example 163, (2E)-1-[2-(4-chlorophenyl)-3-(pyridin-4-yl)-6,7-dihydropyrazolo[1,5-a]pyrazin-5(4H)-yl]-4-(piperidin-1-yl) but-2-en-1-one], the half-inhibitory concentration (IC50) in assay [1] (setting [4]) worked out at 0.16 nM; in assay [2], 0.619 nM; in assay [3] (setting [5]), 47.4 nM.

For the molecule `C=CC(=O)N1CCn2nc(-c3cccc(Cl)c3)c(-c3ccncc3)c2C1` [Example 133, 1-[2-(3-chlorophenyl)-3-(pyridin-4-yl)-6,7-dihydropyrazolo[1,5-a]pyrazin-5(4H)-yl]prop-2-en-1-one], the figures for the concentration for half-maximal inhibition (IC50) in assay [1] (setting [4]), in assay [2] and in assay [3] (setting [5]) were 3.01 nM, 3.83 nM and 172 nM, respectively.

Turning to `C=CC(=O)N1CCn2nc(-c3ccc(C(F)(F)F)cc3F)c(-c3ccncc3)c2C1` [Example 135, 1-{2-[2-fluoro-4-(trifluoromethyl)phenyl]-3-(pyridin-4-yl)-6,7-dihydropyrazolo[1,5-a]pyrazin-5(4H)-yl}prop-2-en-1-one], the 50% inhibitory concentration (IC50) worked out at 0.471 nM in assay [1] (setting [4]), 1.8 nM in assay [2] and 27.7 nM in assay [3] (setting [5]).

For `C=CC(=O)N1Cc2c(-c3ccnc4[nH]cc(C)c34)c(-c3cccc(C#N)c3)nn2C[C@H]1C` [Example 284, 3-[(6R)-6-methyl-3-(3-methyl-1H-pyrrolo[2,3-b]pyridin-4-yl)-5-(prop-2-enoyl)-4,5,6,7-tetrahydropyrazolo[1,5-a]pyrazin-2-yl]benzonitrile], the values for the half-maximal inhibitory concentration (IC50) in assay [1] (setting [4]), in assay [2] and in assay [3] (setting [5]) were 1380 nM, 174 nM and 530 nM, respectively.

For `CN(C)C/C=C/C(=O)N1CCn2nc(-c3ccc4occc4c3)c(-c3ccncc3)c2C1` [Example 199, (2E)-1-[2-(1-benzofuran-5-yl)-3-(pyridin-4-yl)-6,7-dihydropyrazolo[1,5-a]pyrazin-5(4H)-yl]-4-(dimethylamino)but-2-en-1-one], the results for the concentration for half-maximal inhibition (IC50) in assay [1] (setting [4]), in assay [2] and in assay [3] (setting [5]) were 0.672 nM, 2.05 nM and 132 nM, respectively.

In the case of `C=CC(=O)N1Cc2c(-c3ccncc3)c(-c3ccc(F)cc3)nn2C(CC(=O)NC)C1` (stereo not shown) [Example 225, 2-(5-acryloyl-2-(4-fluorophenyl)-3-(pyridin-4-yl)-4,5,6,7-tetrahydropyrazolo[1,5-a]pyrazin-7-yl)-N-methylacetamide], the IC50 was determined as 10.1 nM in assay [1] (setting [4]), 36.6 nM in assay [2] and 386 nM in assay [3] (setting [5]).

Turning to `C=CC(=O)N1CCn2nc(-c3ccc4c(C)c[nH]c4c3)c(-c3ccncc3)c2C1` [Example 108, 1-[2-(3-methyl-1H-indol-6-yl)-3-(pyridin-4-yl)-6,7-dihydropyrazolo[1,5-a]pyrazin-5(4H)-yl]prop-2-en-1-one], the IC50 came to 0.351 nM in assay [1] (setting [4]), 0.425 nM in assay [2] and 33.3 nM in assay [3] (setting [5]).

Consider `CCN(CC)C/C=C/C(=O)N1CCn2nc(-c3ccc(F)cc3)c(-c3ccncc3)c2C1` [Example 69, (2E)-4-(diethylamino)-1-[2-(4-fluorophenyl)-3-(pyridin-4-yl)-6,7-dihydropyrazolo[1,5-a]pyrazin-5(4H)-yl]but-2-en-1-one], for which the IC50 in assay [1] (setting [4]) is 1.73 nM; in assay [2] it was 4.78 nM; in assay [3] (setting [5]) it was 194 nM.

Regarding `CN(C)C/C=C/C(=O)N1Cc2c(-c3ccncc3)c(-c3ccc(F)cc3)nn2C(C(N)=O)C1` (racemic) [Example 202, (7RS)-5-[(2E)-4-(dimethylamino)but-2-enoyl]-2-(4-fluorophenyl)-3-(pyridin-4-yl)-4,5,6,7-tetrahydropyrazolo[1,5-a]pyrazine-7-carboxamide], the values for the 50% inhibitory concentration (IC50) in assay [1] (setting [4]), in assay [2] and in assay [3] (setting [5]) were 57.4 nM, 225 nM and 9980 nM, respectively.

For the molecule `C=CC(=O)N1CCn2nc(-c3ccc(OC)cc3F)c(-c3ccncc3)c2C1` [Example 142, 1-[2-(2-fluoro-4-methoxyphenyl)-3-(pyridin-4-yl)-6,7-dihydropyrazolo[1,5-a]pyrazin-5(4H)-yl]prop-2-en-1-one], the half-inhibitory concentration (IC50) in assay [1] (setting [4]) was determined as 0.739 nM; in assay [2], 2.83 nM; in assay [3] (setting [5]), 53 nM.

Consider `C=CC(=O)N1Cc2c(-c3ccncc3)c(-c3ccc(Cl)cc3F)nn2C[C@@H]1C` [Example 270, 1-[(6S)-2-(4-chloro-2-fluorophenyl)-6-methyl-3-(pyridin-4-yl)-6,7-dihydropyrazolo[1,5-a]pyrazin-5(4H)-yl]prop-2-en-1-one], for which the IC50 was 0.216 nM in assay [1] (setting [4]), 1.03 nM in assay [2] and 11.5 nM in assay [3] (setting [5]).

For `CC(C)(C)OC(=O)NC1(C#CC(=O)N2CCn3nc(-c4ccc(F)cc4)c(-c4ccncc4)c3C2)CC1` [Example 86, tert-butyl (1-{3-[2-(4-fluorophenyl)-3-(pyridin-4-yl)-6,7-dihydropyrazolo[1,5-a]pyrazin-5(4H)-yl]-3-oxoprop-1-yn-1-yl}cyclopropyl) carbamate], the IC50 came out at 122 nM in assay [1] (setting [4]), 237 nM in assay [2] and 971 nM in assay [3] (setting [5]).

For `CN(C)C/C=C/C(=O)N1Cc2c(-c3ccncc3)c(-c3ccc(Cl)cc3)nn2CC1(C)C` [Example 217, (2E)-1-[2-(4-chlorophenyl)-6,6-dimethyl-3-(pyridin-4-yl)-6,7-dihydropyrazolo[1,5-a]pyrazin-5(4H)-yl]-4-(dimethylamino)but-2-en-1-one], the 50% inhibitory concentration (IC50) in assay [1] (setting [4]) was determined as 6.2 nM; in assay [2], 59.8 nM; in assay [3] (setting [5]), 277 nM.

Consider `C=CC(=O)N1CCn2nc(-c3ccc(F)cc3)c(-c3ccnc(Nc4ccccc4)c3)c2C1` [Example 20, 1-[3-(2-anilinopyridin-4-yl)-2-(4-fluorophenyl)-6,7-dihydropyrazolo[1,5-a]pyrazin-5(4H)-yl]prop-2-en-1-one], for which the IC50 in assay [1] (setting [4]) came out at 3.54 nM; in assay [1] (setting [6]), 3.54 nM; in assay [2] it was 9.13 nM; in assay [3] (setting [5]), 617 nM; in assay [3] (Table 3b, Ba/F3 EGFR-insSVD), 617 nM.

Take `C=CC(=O)N1Cc2c(-c3ccncc3)c(-c3ccc(Cl)cc3)nn2CC1(C)C` [Example 211, 1-[2-(4-chlorophenyl)-6,6-dimethyl-3-(pyridin-4-yl)-6,7-dihydropyrazolo[1,5-a]pyrazin-5(4H)-yl]prop-2-en-1-one]: the IC50 came out at 12.5 nM in assay [1] (setting [4]), 40.5 nM in assay [2] and 378 nM in assay [3] (setting [5]).

A word on the IC50: it is the midpoint of a concentration-inhibition curve.

For the origin of these results see patent publication US20260365653A1, “IRREVERSIBLE MUTEGFR INHIBITORS” (Bayer Aktiengesellschaft, priority 2022, published 2026).
